This is an account of results in US7056917B2, “Drug efflux pump inhibitor” (Daiichi Pharmaceutical Co., Ltd., priority 2001, dated 2006).

For assay [1], the system named is Pseudomonas aeruginosa PAM 1723 strain highly expressing the drug efflux pump. The assay is described as follows: Effect of combined use with antimicrobial agent (levofloxacin, aztreonam) on multidrug resistant Pseudomonas aeruginosa. The conditions noted are these: 18 hours, MHB; for MPC8 AZT: minimum concentration of test compound required to enhance antibacterial activity of aztreonam at 1/8 or less of MIC; for MPC4 LVFX: minimum concentration of test compound required to enhance antibacterial activity of levofloxacin applied at 1/4 of MIC; for MPC8 LVFX: minimum concentration of test compound required to enhance antibacterial activity of levofloxacin applied at 1/8 or less of MIC. The assay is classed as cell-based. An excerpt:
Effect of Combined Use with Antimicrobial Agent on Multidrug Resistant Pseudomonas aeruginosa
As multidrug resistant Pseudomonas aeruginosa, Pseudomonas aeruginosa PAM 1723 strain highly expressing the drug efflux pump was used. As antimicrobial drugs for the combinational uses, levofloxacin (LVFX) as a quinolone antibacterial agent and aztreonam (AZT) as a monobactam antibiotic were used. Each of the compounds shown in Table 1 with Example No., which falls within the compounds of the present invention, was subjected to the measurement of its minimum concentration (μg/ml) that was required to enhance the antibacterial activity of levofloxacin when the test compound was used in combination with levofloxacin applied at a concentration of 1/4, or 1/8 or less of the minimum inhibitory concentration against the PAM 1723 strain. […] Effects as combinational uses for 18 hours was indicated for each of the drugs. Effects were determined by visually observing the turbidity of the medium. The Müller-Hinton broth (MHB, Difco) was used as a medium, and the inoculum of the bacteria was 1×10^6 CFU/ml.

The test system of assay [2] is Pseudomonas aeruginosa wild strain PAM 1020. The assay is described as follows: Combined use of a pump inhibitor, levofloxacin (LVFX) and meropenem (MEPM) evaluated by the three-dimensional checker board method. The assay is classed as cell-based. The settings on record: for MIC: Pseudomonas aeruginosa, agent used alone, PAM 1020 strain. How it is done: (1) Effect of Combined Used of a Pump Inhibitor, Levofloxacin (LVFX) and Meropenem (MEPM) Evaluated by the Three-Dimensional Checker Board Method
The effect was measured by the three-dimensional checker board method by using Pseudomonas aeruginosa wild strain PAM 1020. The test strain was inoculated into Mueller-Hinton broth containing LVFX, MEPM (at 11 concentration levels and 0 μg/ml) and the compound of Example 26 (40-0.625 μg/ml and 0 μg/ml) at a concentration of 10^6 CFU/ml and cultured at 37° C. for 18 hours. Then, MIC was measured for sole and combined use. Measurement was performed by the checker board method and FIC index was calculated according to the following equation. FIC index=a/a0+b/b0+c/c0 wherein a0: MIC for Agent A used alone, a: MIC for Agent A when Agents A, B and C are used in combination, b0: MIC for Agent B used alone, b: MIC for Agent B when Agents A, B and C are used in combination, c0: MIC for Agent C used alone, c: MIC for Agent C when Agents A, B and C are used in combination.
It was determined that there was synergistic effect when FIC index was 0.75 or less, additive effect or weak synergistic effect when the index was more than 0.75 but not more than 1.125, no effect of combined use when the index was more than 1.125 but not more than 3.0, and antagonistic effect when the index was more than 3.0.

For `CC(C)c1csc(COc2ccn3c(=O)c(/C=C/C(=O)O)c(N4CCCC(O)C4)nc3c2)n1` (centres unmarked) [Example 5, (E)-3-{2-(3-Hydroxypiperidino)-8-[(4-isopropyl-1,3-thiazol-2-yl)methoxy]-4-oxo-4H-pyrido[1,2-a]pyrimidin-3-yl}-2-propenoic acid], in assay [1], the “MPC8 AZT” value came out at 8 µg/mL, the “MPC4 LVFX” value came to 0.5 µg/mL and the “MPC8 LVFX” value was found to be 8 µg/mL.
As to `CC(C)(C)c1csc(NC(=O)c2ccn3c(=O)c(-c4nnn[nH]4)cnc3c2)n1` [Example 10, N8-[4-(tert-Butyl)-1,3-thiazol-2-yl]-4-oxo-3-(2H-1,2,3,4-tetrazol-5-yl)-4H-pyrido[1,2-a]pyrimidine-8-carboxamide], in assay [1], the “MPC8 AZT” value came out at 4 µg/mL, the “MPC4 LVFX” value was 2 µg/mL and the “MPC8 LVFX” value was 16 µg/mL.
Regarding `CC(C)(C)c1csc(NC(=O)c2ccn3c(=O)c(/C=C/C(=O)O)c(N4CCC[C@@H](OC(N)=O)C4)nc3c2)n1` [Example 18, (E)-3-[2-{(3R)-3-[(Aminocarbonyl)oxy]hexahydro-1-pyridinyl}-8-({[4-(tert-butyl)-1,3-thiazol-2-yl]amino}carbonyl)-4-oxo-4H-pyrido[1,2-a]pyrimidin-3-yl]-2-propenoic acid], in assay [1], the “MPC8 AZT” value was 0.5 µg/mL, the “MPC4 LVFX” value was “≦0.25 μg/ml” and the “MPC8 LVFX” value was found to be 1 µg/mL.
Consider `C[C@H]1COc2c(N3CCN(C)CC3)c(F)cc3c(=O)c(C(=O)O)cn1c23` [LVFX, levofloxacin], for which the FIC index in assay [2] (LVFX + MEPM 0.016 μg/ml, compound of Example 26 0 μg/ml, PAM 1020) was 1.031; in assay [2] (LVFX + MEPM 0.0313 μg/ml, compound of Example 26 0 μg/ml, PAM 1020), 1.0625; in assay [2] (LVFX + MEPM 0.0625 μg/ml, compound of Example 26 0 μg/ml, PAM 1020), 1.125; in assay [2] (LVFX + MEPM 0.125 μg/ml, compound of Example 26 0 μg/ml, PAM 1020), 1.250; in assay [2] (LVFX + MEPM 0.25 μg/ml, compound of Example 26 0 μg/ml, PAM 1020), 1.5. The LVFX conc. in assay [2] (LVFX conc. in combination with MEPM 0.016 μg/ml and compound of Example 26 0.625 μg/ml, PAM 1020) was 0.25 µg/mL; in assay [2] (LVFX conc. in combination with MEPM 0.016 μg/ml and compound of Example 26 1.25 μg/ml, PAM 1020), 0.25 µg/mL; in assay [2] (LVFX conc. in combination with MEPM 0.016 μg/ml and compound of Example 26 2.5 μg/ml, PAM 1020) it was 0.25 µg/mL; in assay [2] (LVFX conc. in combination with MEPM 0.016 μg/ml and compound of Example 26 5 μg/ml, PAM 1020), 0.125 µg/mL; in assay [2] (LVFX conc. in combination with MEPM 0.016 μg/ml and compound of Example 26 10 μg/ml, PAM 1020) it was 0.125 µg/mL; in assay [2] (LVFX conc. in combination with MEPM 0.016 μg/ml and compound of Example 26 20 μg/ml, PAM 1020), 0.125 µg/mL. Moreover, the LVFX conc. came out at 0.125 µg/mL in assay [2] (LVFX conc. in combination with MEPM 0.016 μg/ml and compound of Example 26 40 μg/ml, PAM 1020); 0.25 µg/mL in assay [2] (LVFX conc. in combination with MEPM 0.016 μg/ml, compound of Example 26 0 μg/ml, PAM 1020); 0.25 µg/mL in assay [2] (LVFX conc. in combination with MEPM 0.0313 μg/ml and compound of Example 26 0.625 μg/ml, PAM 1020); 0.25 µg/mL in assay [2] (LVFX conc. in combination with MEPM 0.0313 μg/ml and compound of Example 26 1.25 μg/ml, PAM 1020); 0.125 µg/mL in assay [2] (LVFX conc. in combination with MEPM 0.0313 μg/ml and compound of Example 26 2.5 μg/ml, PAM 1020); 0.125 µg/mL in assay [2] (LVFX conc. in combination with MEPM 0.0313 μg/ml and compound of Example 26 5 μg/ml, PAM 1020). The LVFX conc. in assay [2] (LVFX conc. in combination with MEPM 0.0313 μg/ml and compound of Example 26 10 μg/ml, PAM 1020) worked out at 0.125 µg/mL; in assay [2] (LVFX conc. in combination with MEPM 0.0313 μg/ml and compound of Example 26 20 μg/ml, PAM 1020), 0.125 µg/mL; in assay [2] (LVFX conc. in combination with MEPM 0.0313 μg/ml and compound of Example 26 40 μg/ml, PAM 1020), 0.125 µg/mL; in assay [2] (LVFX conc. in combination with MEPM 0.0313 μg/ml, compound of Example 26 0 μg/ml, PAM 1020), 0.25 µg/mL; in assay [2] (LVFX conc. in combination with MEPM 0.0625 μg/ml and compound of Example 26 0.625 μg/ml, PAM 1020) it was 0.25 µg/mL; in assay [2] (LVFX conc. in combination with MEPM 0.0625 μg/ml and compound of Example 26 1.25 μg/ml, PAM 1020) it was 0.125 µg/mL. Moreover, the LVFX conc. came out at 0.125 µg/mL in assay [2] (LVFX conc. in combination with MEPM 0.0625 μg/ml and compound of Example 26 2.5 μg/ml, PAM 1020); 0.0625 µg/mL in assay [2] (LVFX conc. in combination with MEPM 0.0625 μg/ml and compound of Example 26 5 μg/ml, PAM 1020); 0.0625 µg/mL in assay [2] (LVFX conc. in combination with MEPM 0.0625 μg/ml and compound of Example 26 10 μg/ml, PAM 1020); 0.0313 µg/mL in assay [2] (LVFX conc. in combination with MEPM 0.0625 μg/ml and compound of Example 26 20 μg/ml, PAM 1020); 0.0313 µg/mL in assay [2] (LVFX conc. in combination with MEPM 0.0625 μg/ml and compound of Example 26 40 μg/ml, PAM 1020); 0.25 µg/mL in assay [2] (LVFX conc. in combination with MEPM 0.0625 μg/ml, compound of Example 26 0 μg/ml, PAM 1020). Also, the LVFX conc. in assay [2] (LVFX conc. in combination with MEPM 0.125 μg/ml and compound of Example 26 0.625 μg/ml, PAM 1020) is 0.125 µg/mL; in assay [2] (LVFX conc. in combination with MEPM 0.125 μg/ml and compound of Example 26 1.25 μg/ml, PAM 1020) it was 0.0625 µg/mL; in assay [2] (LVFX conc. in combination with MEPM 0.125 μg/ml and compound of Example 26 2.5 μg/ml, PAM 1020), 0.0313 µg/mL; in assay [2] (LVFX conc. in combination with MEPM 0.125 μg/ml and compound of Example 26 5 μg/ml, PAM 1020) it was 0.0156 µg/mL; in assay [2] (LVFX conc. in combination with MEPM 0.125 μg/ml and compound of Example 26 10 μg/ml, PAM 1020), 0.0039 µg/mL; in assay [2] (LVFX conc. in combination with MEPM 0.125 μg/ml, compound of Example 26 0 μg/ml, PAM 1020), 0.25 µg/mL. The LVFX conc. in assay [2] (LVFX conc. in combination with MEPM 0.25 μg/ml and compound of Example 26 0.625 μg/ml, PAM 1020) worked out at 0.0078 µg/mL; in assay [2] (LVFX conc. in combination with MEPM 0.25 μg/ml, compound of Example 26 0 μg/ml, PAM 1020), 2 µg/mL. For the same compound, the MIC in assay [2] was found to be 0.25 µg/mL.
Consider `C[C@@H](O)[C@H]1C(=O)N2C(C(=O)O)=C(S[C@@H]3CN[C@H](C(=O)N(C)C)C3)[C@H](C)[C@H]12` [MEPM, Meropenem], for which, in assay [2] (LVFX, MEPM and compound of Example 26 0.625-40 μg/ml, PAM 1020), the “effect of combined use of three types of drugs” value is “apparent effects of the addition of MEPM were observed”. The MIC in assay [2] was found to be 0.5 µg/mL. In addition, in assay [2] (compound of Example 26 0.625-40 μg/ml, PAM 1020), the “effect of MEPM on the combined use of two types of drugs, LVFX and the compound of Example 26” value was “effects of the addition of MEPM were clearly observed”.

A word on the MIC: it is the lowest concentration found to suppress growth.
